# Reference: paper PMC8100298, “Histone deacetylase inhibitor resminostat in combination with sorafenib counteracts platelet-mediated pro-tumoral effects in hepatocellular carcinoma” (Scientific Reports, 2021)
# Where two headings read alike, the source gives them in different places.
# Columns and labels:
# Experiment in all cases: Efficacy screening assay
# Format in all cases: cell-based
# [1] = system: MDAMB436; settings: MDAMB436, breast
# Experimental: (§1) The experiment was performed by Oncolead GmbH & Co. KG (Karlsfeld , Germany), based on a standardized screening procedure . Cell lines were purchased directly from the ATCC, NCI and DSMZ cell line c ollections. Cells used for the study had undergone less than 20 passages. To ensure the absence of potential contamination and wrong assignment, all cell lines were tested using a whole genome assay (Agilent, USA). All cell lines were grown as recommended by the suppliers and with addition of 100 U/mL penicillin G and 100 µg/mL; streptomycin. Cell growth and treatments were performed in Nunclon D 96 -well plates (NUNC, Germany). The optimal seeding density for each cell line was determined to ensure exponential growth for the duration of the experiment. All cells growing without anti-cancer agents were sub-conﬂuent by the end of the treatment, as determined by visual inspection.
# (§2) After an initial 24 h pre-growth period, the compounds were added. The vehicle concentration […]
# (§3) was 0.1% DMSO. After incubation at 37°C for 72 h, the culture medium was aspirated, and the cells were precipitated by the addition of 10% trichloroacetic acid (Sigma-Aldrich, Missouri, US). After overnight incubation at 4°C, the plates were washed three times with deionized water. The precipitates were then stained with SRB (0.4% wt/v sulforhodamine B solution in 1% acetic acid, Sigma-Aldrich, Missouri, US). Afterwards, the plates were washed six times with 1% acetic acid to remove unbound stain. After drying the plates at room temperature, the bound SRB was solubilized with 10 mM Tris base and the optical density was measured at 520 nm using a Victor2 plate reader (Perkin Elmer, Germany). Blank OD values were subtracted from mean OD values for each concentration. The nonlinear curve ﬁtting and EC50 calculations were per formed using XLﬁt and algorithm “205” (ID Business […]
# (§4) Multiplicity adjusted p-values with 95% confidence interval was applied. For the invasion assays in Figure 4, one-way ANOVA with multiple comparison testing (Tukey) was performed. Multiplicity adjusted p-values with 95% confidence interval was applied. The adjusted p-values comparing vehicle control without vs. with platelets and compound
# [2] = system: LOVO; settings: 72 h, colon
# Experimental: as §1, §2, §3, §4
# [3] = system: MHHES1; settings: MHHES1, bone
# Experimental: as §1, §2, §3, §4
# [4] = system: J82; settings: J82, bladder
# Experimental: as §1, §2, §3, §4
# [5] = system: IMR90; settings: Homo sapiens, IMR-90, IMR90, lung, 72 h
# Experimental: as §1, §2, §3, §4
# [6] = system: JIMT1; settings: JIMT1, breast
# Experimental: as §1, §2, §3, §4
# [7] = system: MDAMB231; settings: MDAMB231, breast
# Experimental: as §1, §2, §3, §4
# [8] = system: MDAMB435; settings: MDAMB435, skin
# Experimental: as §1, §2, §3, §4
# [9] = system: MCF7; settings: MCF7, breast
# Experimental: as §1, §2, §3, §4
# [10] = system: MG63; settings: MG63, bone
# Experimental: as §1, §2, §3, §4
# [11] = system: IGROV1; settings: IGROV1, ovary
# Experimental: as §1, §2, §3, §4
# [12] = system: MDAMB468; settings: MDAMB468, breast
# Experimental: as §1, §2, §3, §4
smiles,measurement,setting,value
"CN(C)Cc1ccc(S(=O)(=O)n2ccc(/C=C/C(=O)NO)c2)cc1 [resminostat, Resminostat]",EC50,"[1]; Homo sapiens, MDA-MB-436, 72 h, log of EC50, negative, read-out: log(EC50) (converted)",7.08 µM
same,EC50,"[1]; Homo sapiens, MDA-MB-436, 72 h, read-out: EC50",7.15 µM
same,EC50,"[1]; 72 h, read-out: EC50",7.15 µM
same,EC50,"[2]; Homo sapiens, LoVo, log of EC50, negative, read-out: log(EC50) (converted)",1.05 µM
same,EC50,"[2]; Homo sapiens, LoVo, read-out: EC50",1.05 µM
same,EC50,[2]; read-out: EC50,1.05 µM
same,EC50,"[3]; Homo sapiens, MHH-ES-1, 72 h, log of EC50, negative, read-out: log(EC50) (converted)",1.38 µM
same,EC50,"[3]; Homo sapiens, MHH-ES-1, 72 h, read-out: EC50",1.38 µM
same,EC50,"[3]; 72 h, read-out: EC50",1.38 µM
same,EC50,"[4]; Homo sapiens, J82, 72 h, log of EC50, negative, read-out: log(EC50) (converted)",5.62 µM
same,EC50,"[4]; Homo sapiens, J82, 72 h, read-out: EC50",5.68 µM
same,EC50,"[4]; 72 h, read-out: EC50",5.68 µM
same,EC50,"[5]; log of EC50, negative, read-out: log(EC50) (converted)",11 µM
same,EC50,[5]; read-out: EC50,10.9 µM
same,EC50,"[6]; Homo sapiens, JIMT-1, 72 h, log of EC50, negative, read-out: log(EC50) (converted)",3.02 µM
same,EC50,"[6]; Homo sapiens, JIMT-1, 72 h, read-out: EC50",3.03 µM
same,EC50,"[6]; 72 h, read-out: EC50",3.03 µM
same,EC50,"[7]; Homo sapiens, MDA-MB-231, 72 h, log of EC50, negative, read-out: log(EC50) (converted)",2.34 µM
same,EC50,"[7]; Homo sapiens, MDA-MB-231, 72 h, read-out: EC50",2.36 µM
same,EC50,"[7]; 72 h, read-out: EC50",2.36 µM
same,EC50,"[8]; Homo sapiens, MDA-MB-435, 72 h, log of EC50, negative, read-out: log(EC50) (converted)",2.09 µM
same,EC50,"[8]; Homo sapiens, MDA-MB-435, 72 h, read-out: EC50",2.11 µM
same,EC50,"[8]; 72 h, read-out: EC50",2.11 µM
same,EC50,"[9]; Homo sapiens, MCF7, 72 h, log of EC50, negative, read-out: log(EC50) (converted)",1.7 µM
same,EC50,"[9]; Homo sapiens, MCF7, 72 h, read-out: EC50",1.69 µM
same,EC50,"[9]; 72 h, read-out: EC50",1.69 µM
same,EC50,"[10]; Homo sapiens, MG-63, 72 h, log of EC50, negative, read-out: log(EC50) (converted)",1.74 µM
same,EC50,"[10]; Homo sapiens, MG-63, 72 h, read-out: EC50",1.76 µM
same,EC50,"[10]; 72 h, read-out: EC50",1.75 µM
same,EC50,"[11]; Homo sapiens, IGROV-1, 72 h, log of EC50, negative, read-out: log(EC50) (converted)",1.91 µM
same,EC50,"[11]; Homo sapiens, IGROV-1, 72 h, read-out: EC50",1.88 µM
same,EC50,"[11]; 72 h, read-out: EC50",1.88 µM
same,EC50,"[12]; Homo sapiens, MDA-MB-468, 72 h, log of EC50, negative, read-out: log(EC50) (converted)",2.29 µM
same,EC50,"[12]; Homo sapiens, MDA-MB-468, 72 h, read-out: EC50",2.3 µM
same,EC50,"[12]; 72 h, read-out: EC50",2.3 µM
